From PMC9704406 (Virulence, 2022)

System: Smh1
Assay type: biochemical, Legionella pneumophila
Settings: 50 µM TSA, 30 min preincubation; enzyme 156.25 ng/ml; inhibitor

CC(/C=C/C(=O)NO)=C\[C@@H](C)C(=O)c1ccc(N(C)C)cc1 [Trichostatin A]
HDAC-Glo I/II luminescence assay: TSA significantly reduced Smh1 HDAC activity in comparison to Smh1 alone
